# Read-outs that look alike come from different tables or passages of the source.
# Key:
# [1] = Food effect study Part 2, single 500 mg dose fed vs fasted; type: in vivo, human; details: human, plasma, oral, 500 mg, LYT-100 @500 mg single dose, analyte = label
# Method: The comparison will be based on Day 1, Day 2 and Day 3 PK plasma samples after the first dose of study drug on Day 1 under fast and fed conditions of Part 2.
# Subjects will be admitted to the CRU on Day −1 and will fast overnight for at least 10 h.
# [2] = MAD study adverse event profile; type: in vivo
# Text: All subjects in Part 1 and Part 2 will be monitored for safety (including assessment of chemistry, haematology and urinalysis parameters, electrocardiograms [ECGs], vital signs and adverse events [AEs]) and samples will be collected for assessment of PK at predefined time points pre and post-dose as delineated in the Schedule of Events.
# NASH mice = assay: NASH mouse model (streptozotocin + high fat diet), liver histology; type: in vivo; details: n = 8
# Text: Non-alcoholic steatohepatitis (NASH) is characterized by lobular inflammation, hepatocyte ballooning and degeneration progressing to liver fibrosis. […] In addition, nine non-NASH mice were fed with a normal diet and monitored.
# [3] = test system: Primary Mouse Lung Fibroblasts; assay: Survival / TGF-β-induced proliferation of Primary Mouse Lung Fibroblasts (MTT); type: cell-based; details: 500 μM, 72 hrs
# Method: Primary Mouse lung fibroblast were prepared as follows. One lung was removed from 2 months old male BalbC Mouse, perfused with sterile PBS, minced and incubated in 2 ml of serum free Dulbecco's Modified Eagle's Medium (DMEM) containing 100 μg/ml of collagenase I for one hour at 37° C. Each sample was centrifuged at 1500 r.p.m (revolution per minute) for 5 minutes, washed three times with PBS and the final cellular pellet was resuspended in DMEM supplemented with 10% serum and Pen/Strep, and incubated in 150 mm plates at 37° C. with 80% humidity and […]. The growth medium was removed and fresh medium was added every day for 10 days.
# At the end of 10-day incubation period above, lung fibroblasts were confluent. […] One hundred μL of the growth medium was removed and 20 μL of MTT stock solution (prepared in PBS at 5.5 mg/ml concentration) was added and cells were incubated for 4 hrs, then 100 μl of DMSO was added, and absorbance of developed color was monitored at 540-690 nm.
# [4] = test system: Primary Mouse Lung Fibroblasts; assay: TGF-β-induced insoluble collagen synthesis, 6-well plate format (Sircol); type: cell-based; details: Fibroblast, TGF-β 5 ng/ml, 72 hrs, p=0.026, read-out: inhibition of TGF-β-induced total collagen
# Method: One hundred thousand Primary Mouse Lung Fibroblasts were plated in 6-well plates and incubated in complete DMEM until they reached confluency. The incubation medium was removed and complete DMEM containing Prolin (10 μM) and Ascorbic acid (20 μg/ml) was added.
# Supernatant was removed, cells were washed with cold PBS, 1 ml Sircol reagent was added. The Sircol reagent contains the collagen binding dye Sirius red. The cells were scraped off with Sircol reagent and samples were shaken for 5 h at room temperature (RT), centrifuged at 10,000 rpm for 5 min, supernatant was removed, the pellet was washed in 0.5 M acetic acid to remove unbound dye, and recentrifuged at 10,000 rpm for 5 min, supernatant was removed and the final pellet was dissolved in 1 ml 0.5M NaOH and shaken at RT for 5 h. A sample of 100 μl of resultant solution was placed in 96-well. The color reaction was assessed by optical density at a wave length of 600 nm.
# [5] = test system: Primary Mouse Lung Fibroblasts; assay: TGF-β-induced insoluble collagen synthesis, 96-well plate format (Sircol); type: cell-based; details: 500 μM, TGF-β 5 ng/ml, 72 hours, FIG. 4C; p=0.0003
# Method: Approximately 5,000 primary mouse fibroblasts were plated in complete DMEM in 96 well plates and incubated for 3 days at which time the cultures achieved confluency. After cells reached confluency, the medium was removed and fresh DMEM supplemented with ascorbic acid (20 μg/ml) and prolin (10 μMol) was added. […] One hour later, TGF-β was added to the appropriate cultures at a final concentration of 5 ng/ml. After 72 hours, the media was replaced with a 0.5% glutaraldehyde solution. After 30 minutes, the adherent cells were washed and subsequently incubated with acetic acid at a final concentration of 0.5M. After a 30 min room temperature incubation, and subsequent washing steps, the wells were incubated with Sircol reagent. After 5 hours, the unbound dye was removed and the plates were washed and allowed to dry. To extract collagen-bound Sircol, 100 μL of alkaline solution (0.5M NaOH) was added and plates were shaken for 1 h on rotary shaker at room temperature. Absorbance at 600 nm was determined to detect bound collagen.
# [6] = test system: Primary Mouse Lung Fibroblasts; assay: TGF-β-induced soluble fibronectin ELISA; type: cell-based; details: Fibroblast
# Method: (§1) Approximately 5,000 primary mouse lung fibroblasts were plated in complete DMEM in 96 well plates and incubated for 3 days at which time the cultures achieved confluency. After cells reached to confluency, medium was removed and fresh DMEM supplemented with ascorbic acid (20 μg/ml) and prolin (10 μM) was added. […] One hour later, TGF-β (5 ng/ml) was added to the appropriate cultures at a final concentration. After 72 hours, 200 μl samples of the supernatant were placed onto an ELISA plate and incubated overnight. After blocking with %1 BSA for 2 h, plates were incubated with either an anti-collagen type I antibody or an anti-fibronectin antibody.
# (§2) The plates were washed after 1 hour and incubated with secondary horseradish peroxidase-conjugated antibodies (anti-goat for the collagen antibody, anti-rabbit for the fibronectin antibody). After a series of washing steps the color reagent TMB (3,3′,5,5′-Tetramethylbenzidine) was added and 15 minutes later the reactions were terminated with equal volumes of 2 N H2SO4. The levels of soluble collagen and fibronectin were determined by evaluating absorbance at 450 nm.
# [7] = test system: Primary Mouse Lung Fibroblasts; assay: TGF-β-induced soluble collagen ELISA; type: cell-based; details: Fibroblast
# Method: as §1, §2
# L929 cells = assay: TGF-induced soluble fibronectin synthesis in L929 cells (ELISA); type: cell-based; details: 500 μM, in the absence and presence of TGF-β-induction
# Text: Fibronectin is another important component of fibrotic lungs as it is induced by TGF-β and functions both as a structural component of extra cellular matrix as well as well as a ligand for integrin receptors. Just like soluble collagen, binding of fibronectin to integrin receptors induces the proliferation of fibroblast and epithelial cells of the lungs.
# [8] = human, in vivo
# Method: All Part 1 cohorts will be dosed every 12 hours with food for 5 days.
# During the treatment period (Day 1 through Day 5), subjects will be administered their assigned study medication BID, every 12 h±0.25 h (with approximately 240 mL of non-carbonated water), 30 minutes after the start of consumption of their standardised breakfast or dinner (12 h apart). A standardised lunch will be served >4 h post breakfast and >4 h prior to dinner. An evening snack will be served >3 h following evening study medication administration. No additional fluids will be allowed during the 1 h pre- and post-doses. On Day 6, subjects will replicate mealtimes as scheduled on Day 1-5. To ensure study drug dosing every 12 hours, here is an example of meal and dosing schedule in Part 1: • Breakfast: meal to be served 30 mins prior to AM dosing. Breakfast must be completed within 30 mins of start time. • Lunch: meal to be served at least 4 h post-AM study drug dose. • Dinner: meal to be served at least 11.5 h post-AM dose and served 30 minutes prior to PM study drug dose. • Evening snack: Snack to be served at least 15 h post-AM dose (at least 3 h post-PM dose).
# In Part 1, blood samples (4 mL each) for PK will be collected for Cohorts 1, 2, 3, 4, and 6 at specified times (hours) at each as follows: • Day 1 and Day 5: 0 (pre-dose), 0.5, 1, 1.5, 2, 2.5, 3, 3.5, 4, 6, 8, 12 (pre-dose), 13, 14, 15, 16, 18 h • Day 2, Day 3 and Day 4: 0 (pre-morning-dose) and 12 h (pre-evening-dose) • Day 6: 12, 18, 24 and 36 h post-last dose • Day 7: 48 h (post-last dose)
# Pharmacokinetics for Day 1 to 3 in Part 2 (fed state) will be compared to PK for Day 1 to Day 3 in Part 2 (fasted state). Plasma PK parameters (non-compartmental or compartmental analysis as appropriate) will include, but are not limited to: • Following single dose: Tmax, tlag, Cmax, AUC0-4, AUC0-last, AUC0-inf, lambda z, % AUCext, CL/F, Vz/F, Cmax/D, AUC0-last/D, AUC0-inf/D and MRT (D is dose) • After repeated doses: Ctrough, Ctrough/D • Following repeated doses on last day: Tmax, Cmax, Cavg, tlag, t1/2, AUC0-4, AUC0-last, AUC0-inf, lambda z, % AUCext, CLss/F, Vzss/F, MRT, PTF, Rac(AUC), Rac(Cmax), Cmax/D, AUClast/D, AUC0-inf/D and Rac (accumulation ratio) Part 3 (Patients with Secondary Lymphoedema Post-Axillary/Post-Sentinel Node Dissection)
smiles,measurement,setting,value
"[2H]C([2H])([2H])c1ccc(=O)n(-c2ccccc2)c1 [LYT-100, 5-(methyl-d3)-1-phenylpyridin-2-(1H)-one]",AUC,"[1]; read-out: AUC, Fasted",60.9 µg·h/mL
same,AUC,"[1]; read-out: AUC, Fed",49.5 µg·h/mL
same,Cmax,"[1]; read-out: Cmax, Fasted",10.3 µg/mL
same,Cmax,"[1]; read-out: Cmax, Fed",7.9 µg/mL
same,tolerability of 750 mg dosing,[2]; 750 mg BID,surprisingly well tolerated
same,most common adverse events,[2]; blinded MAD data,headache and mild abdominal discomfort
same,severity of adverse events,"[2]; blinded MAD data, 100-1000 mg BID, 5 days",mild and transient
same,NAS (mean ± SD),NASH mice; 30 mg/kg twice daily oral,4.0 ± 1.1
same,"Hepatocyte ballooning score 2 (Many cells/prominent ballooning), number of animals",NASH mice,8
same,"Lobular Inflammation score 1 (<2 foci/200x), number of animals",NASH mice,5
same,"Lobular Inflammation score 2 (2-4 foci/200x), number of animals",NASH mice,3
same,"Steatosis score 0 (<5%), number of animals",NASH mice,4
same,"Steatosis score 1 (5-33%), number of animals",NASH mice,3
same,"Steatosis score 2 (>33%-66%), number of animals",NASH mice,1
same,survival of PMLF alone,[3]; without TGF-β,did not affect the survival
same,diminution of TGF-β-induced proliferation of PMLF,"[3]; TGF-β 5 ng/ml, not statistically significant (p=0.19)",10%
same,inhibition at 500 µM,[4],15%
same,diminution of TGF-β-stimulated insoluble collagen accumulation,[5],24%
same,inhibition at 500 µM,"[6]; TGF-β 5 ng/ml, 72 hours, p=0.0185, read-out: inhibition of TGF-β-dependent induction of soluble fibronectin",11%
same,inhibition at 500 µM,"[6]; no TGF-β, p=0.03, read-out: inhibition of background level of soluble fibronectin",10%
same,inhibition at 500 µM,"[7]; TGF-β 5 ng/ml, 72 hours, p=0.0001, read-out: inhibition of TGF-β-dependent increase of soluble collagen",36%
same,inhibition at 500 µM,"[7]; no TGF-β, p=0.0115, read-out: inhibition of background level of soluble collagen",23%
same,soluble fibronectin levels,L929 cells,significantly reduced
same,dose dependence of AUC96-108,[8],linear dose proportionality
